{"source": "patent US6759403B2", "about": "“Metalloporphyrins and their uses as radiosensitizers for radiation therapy” (Brookhaven Science Associates, LLC, priority 2001, dated 2004)", "key": {"EMT-6 mammary tumors": {"system": "EMT-6 mammary tumors", "assay": "Boron concentrations in tissues at the time of irradiation (Example 8)", "format": "in vivo, BALB/c mice", "conditions": "≈400 μg/g body weight CuTCPBr, euthanized the day of irradiation", "from_the_text": "In this example, female BALB/c mice (Taconic Farms, Germantown, N.Y.) (20-25 g) were used in radiotherapy studies to compare tumor control effects in mice bearing EMT-6 mammary tumors. The EMT-6 leg tumors were formed by mincing freshly removed tumor tissue from mice into fragments no larger than 0.5 mm. The fragments were mixed in a saline solution and implanted subcutaneously (sc) in the legs of mice using an 18-gauge trocar. Tumor fragments were used because in this particular location tumors initiated by cell suspensions tend to spread in a thin subcutaneous layer and invade the subjacent muscle. Using tumor fragments, the tumors are palpable, but thinner on the leg than on the dorsal thorax. In late stage, fragment-initiated tumors can invade muscle tissue but not as frequently as do suspension-initiated tumors.\nAt approximately seven days after tumor implantation, the mice were stratified by tumor volume into six (6) matched experimental groups, which included five groups of twelve (12) mice each and a control group of thirty-three (33). Two groups were treated with ≈400 μg/g body weight CuTCPBr and given two doses of 100 kVp x-irradiation x-rays, two groups were treated with only two doses of 100 kVp x-irradiation, one group received CuTCPBr and were euthanized the day of irradiation. The function of the group which was immediately euthanized was to determine the boron concentration in tissues at the time of irradiation. It was not a control group upon which the effectiveness of treatment was compared. The control group of thirty-three mice was not treated at all.\nTumor to blood boron concentration ratios were about 4:1, which is low due to the high blood values. Such a trend was also observed with CuTCPH at high doses of 400 mg/kg."}, "[1]": {"system": "subcutaneous 9L gliosarcomas", "assay": "Boron biodistribution after intravenous infusion in rat 9L gliosarcoma model (Examples 6 and 7)", "format": "in vivo, Fischer 344 rats", "description": "This example used the experimental rat 9L gliosarcoma model and the protocol used to administer porphyrins by intravenous infusion that were reported in J. NeuroOncol, 52, 111-117, 2001. Six (6) male Fischer 344 rats bearing subcutaneous 9L gliosarcomas were infused intravenously with CuTCPBr at a total dose of 220 μg/gbw over 48 hours. Tumor and blood were sampled from each at zero, one, two and three days after the end of infusion and the boron concentrations measured. In this example, the biodistribution of CuTCPBr was compared to CuTCPH. A group of six (6) male Fischer 344 rats bearing subcutaneous 9L gliosarcomas were infused intravenously with CuTCPBr at a total dose of 220 μg/gbw over 48 hours. A second group of four (4) male Fischer 344 rats bearing subcutaneous 9L gliosarcomas were infused intravenously with CuTCPH at a total dose of 195 μg/gbw. over 48 hours. Boron concentrations in tissues from both groups of rats were taken three days after the end of infusion. The results for the CuTCPBr group of rats are listed in column 2 of Table 6 and the results for the CuTCPH group of rats are listed in column 4 of Table 6. To account for the difference in porphyrin dose (195 μg/gbw for CuTCPH versus 220 μg/gbw for CuTCPBr) and the difference in % boron in each porphyrin (31.8% for CuTCPH versus 21.7 for CuTCPBr), the boron concentrations in tissues from rats given CuTCPBr were normalized so that they would be equivalent to the boron concentrations of rats given CuTCPH. This was done by multiplying the boron concentrations in the CuTCPBr group of rats by the CuTCPBr to CuTCPH boron dose ratio of 1.3. The normalized boron concentrations for the CuTCPBr group of rats are listed in column 3 of Table 6."}, "[2]": {"assay": "Toxicity observation during and after porphyrin administration and at necropsy (Examples 2 and 3)", "format": "in vivo", "conditions": "Examples 2 and 3 (186 or 156 μg CuTCPBr/g)", "from_the_text": "Toxicity is the critical factor, and since no toxicity was observed, the dose can be increased to achieve tumor boron concentrations higher than those in Examples 2 and 3."}, "[3]": {"conditions": "220 μg/gbw CuTCPBr (47.7 μg B/gbw) iv over 48 hours, 3 days after end of infusion"}, "[4]": {"conditions": "CuTCPBr 220 μg/gbw iv infusion over 48 hours, 0 days after end of infusion"}, "[5]": {"conditions": "CuTCPBr 220 μg/gbw iv infusion over 48 hours, 1 day after end of infusion"}, "[6]": {"conditions": "CuTCPBr 220 μg/gbw iv infusion over 48 hours, 2 days after end of infusion"}, "[7]": {"conditions": "CuTCPBr 220 μg/gbw iv infusion over 48 hours, 3 days after end of infusion"}, "[8]": {"conditions": "normalized to boron dose 61.8 μg B/gbw (x1.3), 3 days after end of infusion"}}}
{"substance": "copper octabromotetracarboranylphenylporphyrin [CuTCPBr]", "values": [{"measurement": "Boron Concentration, Blood", "setting": "EMT-6 mammary tumors", "value": "68 (19) μg/g"}, {"measurement": "Boron Concentration, Liver", "setting": "EMT-6 mammary tumors", "value": "725 (72) μg/g"}, {"measurement": "Boron Concentration, Muscle", "setting": "EMT-6 mammary tumors", "value": "12 (3) μg/g"}, {"measurement": "Boron Concentration, Skin", "setting": "EMT-6 mammary tumors", "value": "20 (4.3) μg/g"}, {"measurement": "Boron Concentration, Tumor", "setting": "EMT-6 mammary tumors; leg tumor", "value": "277 (45) μg/g"}, {"measurement": "Boron Concentration, Brain", "setting": "[1]; [3]", "value": "0.4 (0) μg/g"}, {"measurement": "Boron Concentration, Kidney", "setting": "[1]; [3]", "value": "11 (1) μg/g"}, {"measurement": "Boron Concentration, Lacrimal Gland", "setting": "[1]; [3]", "value": "28 (13) μg/g"}, {"measurement": "Boron Concentration, Liver", "setting": "[1]; [3]", "value": "477 (25) μg/g"}, {"measurement": "Boron Concentration, Lung", "setting": "[1]; [3]", "value": "123 (42) μg/g"}, {"measurement": "Boron Concentration, Lymph Nodes", "setting": "[1]; [3]", "value": "202 (32) μg/g"}, {"measurement": "Boron Concentration, Parotid Gland", "setting": "[1]; [3]", "value": "85 (36) μg/g"}, {"measurement": "Boron Concentration, Spinal Cord", "setting": "[1]; [3]", "value": "0.9 (0.4) μg/g"}, {"measurement": "Boron Concentration, Spleen", "setting": "[1]; [3]", "value": "632 (41) μg/g"}, {"measurement": "Boron Concentration, Submaxillary Gland", "setting": "[1]; [3]", "value": "68 (8) μg/g"}, {"measurement": "Boron Concentration, Tongue", "setting": "[1]; [3]", "value": "30 (3) μg/g"}, {"measurement": "Boron concentration, Ears", "setting": "[1]; [3]", "value": "8.4 (1.2) μg/g"}, {"measurement": "Boron Concentration, Tumor", "setting": "[1]; CuTCPBr 220 μg/gbw (47.7 μg B/gbw) iv infusion over 48 hours, 3 days after end of infusion", "value": "52 (19) μg/g"}, {"measurement": "Boron Concentration, Blood", "setting": "[1]; [4]", "value": "360 (30) μg/g"}, {"measurement": "Boron Concentration, Tumor", "setting": "[1]; [4]", "value": "67 (26) μg/g"}, {"measurement": "Tumor to Blood Ratio (boron)", "setting": "[1]; [4]", "value": 0.19}, {"measurement": "Boron Concentration, Blood", "setting": "[1]; [5]", "value": "150 (20) μg/g"}, {"measurement": "Boron Concentration, Tumor", "setting": "[1]; [5]", "value": "64 (17) μg/g"}, {"measurement": "Tumor to Blood Ratio (boron)", "setting": "[1]; [5]", "value": 0.43}, {"measurement": "Boron Concentration, Blood", "setting": "[1]; [6]", "value": "23 (7) μg/g"}, {"measurement": "Boron Concentration, Tumor", "setting": "[1]; [6]", "value": "75 (34) μg/g"}, {"measurement": "Tumor to Blood Ratio (boron)", "setting": "[1]; [6]", "value": 3.3}, {"measurement": "Boron Concentration, Blood", "setting": "[1]; [7]", "value": "1.4 (0.1) μg/g"}, {"measurement": "Tumor to Blood Ratio (boron)", "setting": "[1]; [7]", "value": 38}, {"measurement": "Boron Concentration, Brain, CuTCPBr Normalized", "setting": "[1]; [8]", "value": 0.5, "unit": "µg/g"}, {"measurement": "Boron Concentration, Ears, CuTCPBr Normalized", "setting": "[1]; [8]", "value": 11, "unit": "µg/g"}, {"measurement": "Boron Concentration, Kidney, CuTCPBr Normalized", "setting": "[1]; [8]", "value": 14, "unit": "µg/g"}, {"measurement": "Boron Concentration, Lacrimal Gland, CuTCPBr Normalized", "setting": "[1]; [8]", "value": 37, "unit": "µg/g"}, {"measurement": "Boron Concentration, Liver, CuTCPBr Normalized", "setting": "[1]; [8]", "value": 623, "unit": "µg/g"}, {"measurement": "Boron Concentration, Lung, CuTCPBr Normalized", "setting": "[1]; [8]", "value": 161, "unit": "µg/g"}, {"measurement": "Boron Concentration, Lymph Nodes, CuTCPBr Normalized", "setting": "[1]; [8]", "value": 264, "unit": "µg/g"}, {"measurement": "Boron Concentration, Parotid Gland, CuTCPBr Normalized", "setting": "[1]; [8]", "value": 111, "unit": "µg/g"}, {"measurement": "Boron Concentration, Spinal Cord, CuTCPBr Normalized", "setting": "[1]; [8]", "value": 1.2, "unit": "µg/g"}, {"measurement": "Boron Concentration, Spleen, CuTCPBr Normalized", "setting": "[1]; [8]", "value": 825, "unit": "µg/g"}, {"measurement": "Boron Concentration, Submaxillary Gland, CuTCPBr Normalized", "setting": "[1]; [8]", "value": 89, "unit": "µg/g"}, {"measurement": "Boron Concentration, Tongue, CuTCPBr Normalized", "setting": "[1]; [8]", "value": 39, "unit": "µg/g"}, {"measurement": "Boron Concentration, Tumor, CuTCPBr Normalized", "setting": "[1]; [8]", "value": 68, "unit": "µg/g"}, {"measurement": "Toxicity", "setting": "[1]; rats, 220 μg/gbw CuTCPBr or 195 μg/gbw CuTCPH iv over 48 hours", "value": "does not appear to be a major problem"}, {"measurement": "tissues at necropsy", "setting": "[2]", "value": "all tissues appeared normal"}, {"measurement": "toxic effects, physically or behaviorally", "setting": "[2]; during and after porphyrin administration", "value": "no toxic effects were noted"}]}
